Experimental data reported in patent US20030104063A1, “Pharmaceutical compositions of dispersions of amorphous drugs mixed with polymers” (priority 2001, published 2003).
Each block holds one compound with its values, some of them ahead of it.

Legend:
Assay type in all cases: physicochemical
[1] = In vitro dissolution test of Drug 2 compositions in PBS with sodium taurocholic acid/POPC (microcentrifuge, HPLC); settings: for Drug 2 Concentration: PBS with sodium taurocholic acid/POPC, 37° C.
Experimental: Example 5 was prepared by combining the drug/matrix dispersion of Drug 2 and polyethylene glycol with the concentration-enhancing polymer HPMCAS. Example 5 was evaluated in an in vitro dissolution test using a microcentrifuge method. In this test, 18 mg of the dispersion was added to each of two microcentrifuge tubes. The tubes were placed in a 37° C. temperature-controlled chamber, and 1.8 mL PBS containing 7.3 mM sodium taurocholic acid and 1.4 mM 1-palmitoyl-2-oleyl-sn-glycero-3-phosphocholine, with 7.2 mg HPMCAS-MF, was added. The tests were sampled as described in Example 1, and analyzed using HPLC. Samples were collected at 4, 10, 20, 40, 90, and 1200 minutes.

[2] = In vitro dissolution test of Drug 3 compositions in PBS (microcentrifuge, HPLC); settings: for Drug 3 Concentration: PBS, 37° C.
Experimental: Example 6 was prepared by combining the dispersion with the concentration-enhancing polymer HPMCAS. 7.2 mg of the dispersion of Example 6 was added to microcentrifuge tubes. Tests were performed in duplicate. The tubes were placed in a 37° C. temperature-controlled chamber, and 1.8 mL PBS with 5.4 mg HPMCAS-MF was added. The tests were sampled as described in Example 1, and analyzed using HPLC.

[3] = In vitro dissolution test of Drug 4 compositions in PBS (microcentrifuge, HPLC); parameters: AUC: concentration or dose not given beside the values; settings: for Drug 4 Concentration: PBS, 37° C.
Experimental: Tests were performed in duplicate. The tubes were placed in a 37° C. temperature-controlled chamber, and 1.8 mL PBS with 7.2 mg PVA was added. The tests were sampled as described in Example 1, and analyzed using HPLC. HPLC analysis was performed using a Zorbax SB C18 column, with a mobile phase of 35 vol. % water and 65 vol. % methanol. UV absorbance of Drug 4 was measured at 297 nm.

[4] = In vitro dissolution test of Drug 5 compositions in MFDS pH 6.5 (microcentrifuge, HPLC); settings: for Drug 5 Concentration: MFDS pH 6.5, 37° C.
Experimental: Example 10 was prepared by combining the above amorphous dispersion with the concentration-enhancing polymer hydroxypropyl methylcellulose (HPMC E3 Prem LV, Dow Chemical Co.). 1.4 mg of the amorphous dispersion was added to microcentrifuge tubes. The tubes were placed in a 37° C. temperature-controlled chamber, and 1.8 mL PBS containing 0.5 wt % sodium taurocholic acid/1-palmitoyl-2-oleyl-sn-glycero-3-phosphocholine (MFDS, pH 6.5) and 0.4 mg HPMC was added. The tests were sampled as described in Example 1, and analyzed using HPLC.
For Control C12, in vitro dissolution tests were performed using the precedures described above except that 1.4 mg of the amorphous dispersion was tested without concentration-enhancing polymer (HPMC) in the test solution.

SMILES: CCC(CC)Oc1c(C)cnc(Oc2c(C)cc(C)cc2C)c1C [Control C7, 3,5-dimethyl-4-(3′-pentoxy)-2-(2′, 4′, 6′-trimethylphenoxy) pyridine]
Drug 2 Concentration ([1]; 0 min): 0 µg/mL | Drug 2 Concentration ([1]; 4 min): 16 µg/mL | Drug 2 Concentration ([1]; 10 min): 33 µg/mL | Drug 2 Concentration ([1]; 20 min): 32 µg/mL | Drug 2 Concentration ([1]; 40 min): 30 µg/mL | Drug 2 Concentration ([1]; 90 min): 39 µg/mL | Drug 2 Concentration ([1]; 1200 min): 37 µg/mL | AUC ([1]; Drug 2, 0 min): 0 µg·min/mL | AUC ([1]; Drug 2, 4 min): 0 µg·min/mL | AUC ([1]; Drug 2, 10 min): 200 µg·min/mL | AUC ([1]; Drug 2, 20 min): 500 µg·min/mL | AUC ([1]; Drug 2, 40 min): 1,100 min*μg/mL | AUC ([1]; Drug 2, 90 min): 2,800 min*μg/mL | AUC ([1]; Drug 2, 1200 min): 45,000 min*μg/mL | AUC90 ([1]; Drug 2, area under the concentration versus time curve after 90 minutes): 2800 µg·min/mL | C1200 ([1]; Drug 2 concentration at 1200 minutes): 37 µg/mL | Cmax,90 ([1]; maximum concentration of Drug 2 in solution during the first 90 minutes): 39000 ng/mL

Drug 3 Concentration ([2]; 0 min): <1 µg/mL | Drug 3 Concentration ([2]; 4 min): <1 µg/mL | Drug 3 Concentration ([2]; 10 min): <1 µg/mL | Drug 3 Concentration ([2]; 20 min): <1 µg/mL | Drug 3 Concentration ([2]; 40 min): <1 µg/mL | Drug 3 Concentration ([2]; 90 min): <1 µg/mL | Drug 3 Concentration ([2]; 1200 min): <1 µg/mL | AUC ([2]; Drug 3, 0 min): <1 µg·min/mL | AUC ([2]; Drug 3, 4 min): <1 µg·min/mL | AUC ([2]; Drug 3, 10 min): <1 µg·min/mL | AUC ([2]; Drug 3, 20 min): <1 µg·min/mL | AUC ([2]; Drug 3, 40 min): <1 µg·min/mL | AUC ([2]; Drug 3, 90 min): <1 µg·min/mL | AUC ([2]; Drug 3, 1200 min): <1 µg·min/mL | AUC90 ([2]; Drug 3, after 90 minutes): <1 µg·min/mL | C1200 ([2]; Drug 3 concentration at 1200 minutes): <1 µg/mL | Cmax,90 ([2]; maximum concentration of Drug 3 during the first 90 minutes): <1000 ng/mL
SMILES: CCOC(=O)N1c2ccc(C(F)(F)F)cc2[C@@H](N(Cc2cc(C(F)(F)F)cc(C(F)(F)F)c2)C(=O)OC)C[C@H]1CC [Control C9, [2R,4S] 4-[(3,5-bis-trifluoromethyl-benzyl)-methoxycarbonyl-amino]-2-ethyl-6-trifluoromethyl-3,4-dihydro-2H-quinoline-1-carboxylic acid ethyl ester]

Drug 4 Concentration ([3]; 0 min): 0 µg/mL | Drug 4 Concentration ([3]; 4 min): 360 µg/mL | Drug 4 Concentration ([3]; 10 min): 382 µg/mL | Drug 4 Concentration ([3]; 20 min): 372 µg/mL | Drug 4 Concentration ([3]; 40 min): 345 µg/mL | Drug 4 Concentration ([3]; 90 min): 262 µg/mL | Drug 4 Concentration ([3]; 1200 min): 154 µg/mL | AUC ([3]; Drug 4, 0 min): 0 µg·min/mL | AUC ([3]; Drug 4, 4 min): 700 µg·min/mL | AUC ([3]; Drug 4, 10 min): 2,900 min*μg/mL | AUC ([3]; Drug 4, 20 min): 6,700 min*μg/mL | AUC ([3]; Drug 4, 40 min): 13,900 min*μg/mL | AUC ([3]; Drug 4, 90 min): 29,100 min*μg/mL | AUC ([3]; Drug 4, 1200 min): 259,800 min*μg/mL | AUC90 ([3]; Drug 4, after 90 minutes): 29,100 min*μg/mL | C1200 ([3]; Drug 4 concentration at 1200 minutes): 154 µg/mL | Cmax,90 ([3]; maximum concentration of Drug 4 during the first 90 minutes): 382000 ng/mL
SMILES: O=C(N[C@@H](Cc1ccccc1)[C@@H](O)C(=O)N1C[C@@H](O)[C@@H](O)C1)c1cc2cc(Cl)ccc2[nH]1 [Control C11, 5-chloro-1H-indole-2-carboxylic acid [(1S)-benzyl-3-((3R, 4S)-dihydroxypyrrolidin-1-yl-)-(2R)-hydroxy-3-oxypropyl] amide]

Drug 5 Concentration ([4]; 0 min): 0 µg/mL | Drug 5 Concentration ([4]; 4 min): 16 µg/mL | Drug 5 Concentration ([4]; 10 min): 8 µg/mL | Drug 5 Concentration ([4]; 20 min): 5 µg/mL | Drug 5 Concentration ([4]; 40 min): 4 µg/mL | Drug 5 Concentration ([4]; 90 min): 4 µg/mL | Drug 5 Concentration ([4]; 1200 min): 4 µg/mL | AUC ([4]; Drug 5, 0 min): 0 µg·min/mL | AUC ([4]; Drug 5, 4 min): 0 µg·min/mL | AUC ([4]; Drug 5, 10 min): 100 µg·min/mL | AUC ([4]; Drug 5, 20 min): 200 µg·min/mL | AUC ([4]; Drug 5, 40 min): 300 µg·min/mL | AUC ([4]; Drug 5, 90 min): 500 µg·min/mL | AUC ([4]; Drug 5, 1200 min): 4,900 min*μg/mL | AUC90 ([4]; Drug 5, after 90 minutes): 500 µg·min/mL | C1200 ([4]; Drug 5 concentration at 1200 minutes): 4 µg/mL | Cmax,90 ([4]; maximum concentration of Drug 5 during the first 90 minutes): 16000 ng/mL
SMILES: CS(=O)(=O)O.O=C1Cc2cc(CCN3CCN(c4nsc5ccccc45)CC3)c(Cl)cc2N1 [Control C13]
